Data: patent US6696433B2, “Use of sex steroids function modulators to treat wounds and fibrotic disorders” (Renovo Limited, priority 1996, dated 2004)
Marks after values point to notes of the source that are not given here. One block for each compound: values may come before it.

What was measured:
[1] = tested on: TGF-β1 secreted by dermal fibroblasts; assay: TGF-β levels in fibroblast conditioned media, mink lung cell growth inhibition assay; format: cell-based, human; conditions: for TGF-beta LEVELS: 24 hr; for active TGF-β1 (non-heat-activated samples): fibroblast conditioned media after 24 hr treatment, compared to control; for FOLD INDUCTION of TGF-beta levels: relative to control
Method: Human dermal fibroblasts were explanted from the 4 mm punch biopsy specimens of normal skin. Fibroblasts used in the study were cultured at 37° C. in 95% air; 5% CO2 at 100% relative humidity, in phenol red-free DMEM (Gibco), 100 U/ml penicillin, […], 1 mM sodium pyruvate, 2 mM L-glutamine, non-essential amino acids and charcoal-stripped 10% FCS (Gibco, UK) (to remove endogenous steroids).
Cultured cells at passage 3-5 were seeded overnight in 24-well plates at a density of 2×10^5 cells per well in serum free media. The following morning oestrogen or progesterone (made soluble by the incorporation of the carrier cyclodextrin; Sigma, Poole), ranging from 1 pM to 1 mM doses, were added to the medium for 24 hrs. All samples were assessed in triplicate. The media was removed after the 24 hr incubation. 1 mg/ml of aprotinin, leupeptin and pepstatin A was then added to the media which was used immediately in a TGF-β assay (see below). Controls included cyclodextrin at the appropriate concentration, and serum-free medium alone.
TGF-β levels in the media (2.1.5.2) were determined using a mink lung growth inhibition assay as described by Danielpour et al, (J Cell Physiol, 138 p79-86) Briefly, mink lung epithelial cells (MLECs) were maintained in DMEM and 10% FCS at 37° C. in 10% CO2. Subconfluent cells were trypsinized, resuspended in 10% FCS, pelleted at 500 g for 5 min, washed with 10 ml of assay buffer (DMEM, 2% FCS, 10 mM HEPES pH 7.4, penicillin 25 U/ml, streptomycin 25 μg/ml), resuspended in assay buffer and seeded at 10^5 cells/well in a 24-well Costar plate. After 1 hr conditioned media or control media (with varying concentrations of hormones ranging from 1 pM-1 mM or cyclodextrin alone) were added, 22 hrs later cells were pulsed with [^3H] thymidine (0.5 μCi/well) for 2 hrs at 37° C., and the procedure described above for the extraction and measurement of radioactivity followed (2.1.5.3). A standard curve was produced using 10-1000 pg/ml TGF-β standard (R&D) from which inhibition data could be converted to pg/ml. Results were presented as pg/ml TGF-β/10^5 cells (relative to control valves for each individual hormone concentration).

[2] = tested on: elastase; assay: Wound elastase activity: fibronectin zymography, immunoblotting and elastase substrate degradation; format: in vivo, human; conditions: day 7 wounds compared to placebo
Method: Proteases responsible for fibronectin degradation were identified by zymography using fibronectin-containing acrylamide gels (12% acrylamide and 0.33 mg/ml fibronectin, Central Blood Products Ltd). Tissue samples were lyophilized and homogenized using a ground glass homogenizer containing 0.5 ml buffer (100 mM Tris/HCl, 6M Urea, 15 mM CaCl2, 0.25% Triton-X100, pH 7.4). After centrifugation at 11,000 rpm for 10 min at 4° C. samples (20 μg dry wt) were incubated for 30 min at 37° C. with 2× Laemmli sample buffer and subjected to electrophoresis under non-reducing conditions (Laemmli, 1970). After electrophoresis, the gels were washed twice with 2.5% Triton-X100 for 1 hr to remove SDS. The gels were briefly washed with double distilled water and incubated for 18 h at 37° C. in developing buffer containing 50 mM Tris/HCl, 150 mM NaCl and 5 mM CaCl2, pH 7.4. At the end of incubation the gels were stained with 0.5% Coomassie brilliant blue and destained. […]
Tissue samples (20 μg dry wt) and human neutrophil elastase (0.01-0.3 μg/ml) were incubated for up to 1 h at 37° C. in 200 μl of 0.1M Hepes buffer, pH 7.5, containing 0.5M NaCl, 10% dimethylsulfoxide and 0.1 mM elastase substrate (methoxysuccinyl-ala-ala-pro-val-p-nitroanilide; Calibiochem Co;). Substrate degradation was determined by measuring OD410 (Dynatech MR5000). […] Results were expressed as ng/ml elastase activity/20 μg dry wt.

[3] = tested on: full thickness incisional wounds; assay: Incisional wound healing in OVX and sham rats, histology at day 7 post-wounding; format: in vivo, Female Sprague Dawley rats; conditions: day 7 wound from an intact female rat treated with oestrogen
[4] = tested on: 4 mm punch biopsy wounds of the upper inner arm; assay: Topical oestrogen patch clinical trial of wound healing in elderly men and women; format: in vivo, human; design: key to Collagen Quantities: +=minimal quantities; ++=less than normal skin; +++=similar to normal skin; ++++=greater than normal skin; conditions: for Collagen Quantities: oestradiol patch, DAY 80
[5] = OLD person (2A or 2B) fibroblasts, mM dose
[6] = OLD person (2A or 2B) fibroblasts, nM dose
[7] = OLD person (2A or 2B) fibroblasts, pM dose
[8] = OLD person (2A or 2B) fibroblasts, μM dose
[9] = YOUNG person (2C) fibroblasts, mM dose
[10] = YOUNG person (2C) fibroblasts, nM dose
[11] = YOUNG person (2C) fibroblasts, pM dose
[12] = YOUNG person (2C) fibroblasts, μM dose

elastase activity (synthetic elastase substrate degradation assay) [2]: significantly reduced
Structure (SMILES): C[C@]12CC[C@@H]3c4ccc(O)cc4CC[C@H]3[C@@H]1CC[C@@H]2O [Oestrogen]
TGF-beta LEVELS [1, 5]: 416 ± 80 pg/ml/10^5 cell/24 hr
TGF-beta LEVELS [1, 6]: 280 ± 60 pg/ml/10^5 cell/24 hr
TGF-beta LEVELS [1, 7]: 80 ± 50 pg/ml/10^5 cell/24 hr
TGF-beta LEVELS [1, 8]: 315 ± 47 pg/ml/10^5 cell/24 hr
TGF-beta LEVELS [1, 9]: 428 ± 58 pg/ml/10^5 cell/24 hr
TGF-beta LEVELS [1, 10]: 312 ± 30 pg/ml/10^5 cell/24 hr
TGF-beta LEVELS [1, 11]: 118 ± 24 pg/ml/10^5 cell/24 hr
TGF-beta LEVELS [1, 12]: 282 ± 22 pg/ml/10^5 cell/24 hr
active TGF-β1 (non-heat-activated samples) [1]: no increase
wound healing in stained sections (FIG. 1 c) [3]: improved wound healing
Collagen Quantities ([4]; FEMALES (3A)): ++++
Collagen Quantities ([4]; MALES (3C)): ++++
Collagen levels ([4]; day 7 and day 80 post-wounding, both sexes (3A and 3C) compared to placebo): consistently increased

Structure (SMILES): CC(=O)[C@H]1CC[C@H]2[C@@H]3CCC4=CC(=O)CC[C@]4(C)[C@H]3CC[C@]12C [Progesterone, progesterone]
TGF-beta LEVELS [1, 5]: 33 ± 13 pg/ml/10^5 cell/24 hr
FOLD INDUCTION of TGF-beta levels [1, 5]: 1
TGF-beta LEVELS [1, 6]: 90 ± 38 pg/ml/10^5 cell/24 hr
FOLD INDUCTION of TGF-beta levels [1, 6]: 2.6*
TGF-beta LEVELS [1, 7]: 32 ± 13 pg/ml/10^5 cell/24 hr
FOLD INDUCTION of TGF-beta levels [1, 7]: 1
TGF-beta LEVELS [1, 8]: 65 ± 15 pg/ml/10^5 cell/24 hr
FOLD INDUCTION of TGF-beta levels [1, 8]: 2*
TGF-beta LEVELS [1, 9]: 82 ± 13 pg/ml/10^5 cell/24 hr
FOLD INDUCTION of TGF-beta levels [1, 9]: 0.8
TGF-beta LEVELS [1, 10]: 115 ± 20 pg/ml/10^5 cell/24 hr
FOLD INDUCTION of TGF-beta levels [1, 10]: 1
TGF-beta LEVELS [1, 11]: 70 ± 31 pg/ml/10^5 cell/24 hr
FOLD INDUCTION of TGF-beta levels [1, 11]: 0.6
TGF-beta LEVELS [1, 12]: 96 ± 13 pg/ml/10^5 cell/24 hr
FOLD INDUCTION of TGF-beta levels [1, 12]: 1
active TGF-β1 (non-heat-activated samples) [1]: no increase
increase in TGF-β1 levels ([1]; nM and μM doses, fibroblasts from the aged subjects (2A or 2B)): 2 fold
effect on TGF-β1 production compared to controls ([1]; young fibroblasts (Group 2C)): no significant effect
